Several values for one entry are separate records, joined by “and”; a condition that tells them apart may be missing. Equal values may be shown once.
The compounds below were run against T1, Histone deacetylase 8 (Homo sapiens, UniProt Q9BY41) (assay: Enzyme inhibition assay).
T1 sequence (Q9BY41 whole entry): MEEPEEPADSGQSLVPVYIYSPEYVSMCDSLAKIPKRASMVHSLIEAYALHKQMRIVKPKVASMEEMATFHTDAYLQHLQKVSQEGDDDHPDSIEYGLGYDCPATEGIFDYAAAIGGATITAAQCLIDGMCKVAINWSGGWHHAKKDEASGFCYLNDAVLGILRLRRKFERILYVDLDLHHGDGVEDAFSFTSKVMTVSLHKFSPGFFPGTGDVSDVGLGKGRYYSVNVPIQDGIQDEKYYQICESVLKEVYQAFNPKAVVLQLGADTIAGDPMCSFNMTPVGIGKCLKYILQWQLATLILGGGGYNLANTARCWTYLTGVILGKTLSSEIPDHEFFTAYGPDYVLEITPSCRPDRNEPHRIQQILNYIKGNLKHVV
Protocol: The nucleus extract […] HDAC8 enzyme was expressed in Escherichia coli. Boc-Lys (acetyl)-AMC was used as the substrate of HDAC. SAHA which is the HDAC inhibitor on market was used as a positive control. The compounds were diluted to six concentrations (25, 5, 1, 0.2, 0.04 and 0.008 uM/L) to investigate their ability of inhibiting HDAC activity.
An IC50 of 1660 nM was found for `Cc1cc(C)cc(NC(=O)[C@@H](NC(=O)Nc2ccc(C(=O)NCCCCCC(=O)NO)cc2)c2ccccc2)c1` [(S)-4-(3-(2-((3,5-dimethylphenyl)amino)-2-oxo-1-phenylethyl)ureido)-N-(6-(hydroxyamino)-6-oxohexyl)benzamide (L13)] in this work.
An IC50 of 1300 nM was found for `O=C(CCCCCNC(=O)c1ccc(NC(=O)N[C@H](C(=O)Nc2ccccc2O)c2ccccc2)cc1)NO` [(S)-N-(6-(hydroxyamino)-6-oxohexyl)-4-(3-(2-((2-hydroxyphenyl)amino)-2-oxo-1-phenylethyl)ureido)benzamide (L11)] in this work.
In the case of `O=C(CCCCCNC(=O)c1ccc(NC(=O)N[C@H](C(=O)NCc2ccc(F)cc2)c2ccccc2)cc1)NO` [(S)-4-(3-(2-((4-fluorobenzyl)amino)-2-oxo-1-phenylethyl)ureido)-N-(6-(hydroxyamino)-6-oxohexyl)benzamide (L15)], the IC50 is reported as 1070 nM and 1210 nM.
An IC50 of 1340 nM was found for `Cc1ccccc1NC(=O)[C@@H](NC(=O)Nc1ccc(C(=O)NCCCCCC(=O)NO)cc1)c1ccccc1` [(S)-N-(6-(hydroxyamino)-6-oxohexyl)-4-(3-(2-oxo-1-phenyl-2-(o-tolylamino)ethyl)ureido)benzamide (L6)] in this work.
An IC50 of 967 nM was found for `O=C(CCCCCNC(=O)c1ccc(NC(=O)N[C@H](C(=O)Nc2cccc(C(F)(F)F)c2)c2ccccc2)cc1)NO` [(S)-N-(6-(hydroxyamino)-6-oxohexyl)-4-(3-(2-oxo-1-phenyl-2-((3-(trifluoromethyl)phenyl)amino)ethyl)ureido)benzamide (L8)] in this work.
An IC50 of 1320 nM was found for `Cc1cccc(NC(=O)[C@@H](NC(=O)Nc2ccc(C(=O)NCCCCCC(=O)NO)cc2)c2ccccc2)c1` [(S)-N-(6-(hydroxyamino)-6-oxohexyl)-4-(3-(2-oxo-1-phenyl-2-(m-tolylamino)ethyl)ureido)benzamide (L18)] in this work.
An IC50 of 1770 nM was found for `COc1ccccc1NC(=O)[C@@H](NC(=O)Nc1ccc(C(=O)NCCCCCC(=O)NO)cc1)c1ccccc1` [(S)-N-(6-(hydroxyamino)-6-oxohexyl)-4-(3-(2-((2-methoxyphenyl)amino)-2-oxo-1-phenylethyl)ureido)benzamide (L10)] in this work.
An IC50 of 1460 nM was found for `O=C(CCCCCNC(=O)c1ccc(NC(=O)N[C@H](C(=O)Nc2ccco2)c2ccccc2)cc1)NO` [(S)-4-(3-(2-(furan-2-ylamino)-2-oxo-1-phenylethyl)ureido)-N-(6-(hydroxyamino)-6-oxohexyl)benzamide (L5)] in this work.
An IC50 of 1790 nM was found for `CC(C)c1cccc(C(C)C)c1NC(=O)[C@@H](NC(=O)Nc1ccc(C(=O)NCCCCCC(=O)NO)cc1)c1ccccc1` [(S)-4-(3-(2-((2,6-diisopropylphenyl)amino)-2-oxo-1-phenylethyl)ureido)-N-(6-(hydroxyamino)-6-oxohexyl)benzamide (L17)] in this work.
An IC50 of 2340 nM was found for `CC(C)(C)c1ccc(NC(=O)[C@@H](NC(=O)Nc2ccc(C(=O)NCCCCCC(=O)NO)cc2)c2ccccc2)cc1` [(S)-4-(3-(2-((4-(tert-butyl)phenyl)amino)-2-oxo-1-phenylethyl)ureido)-N-(6-(hydroxyamino)-6-oxohexyl)benzamide (L4)] in this work.
An IC50 of 1770 nM was found for `O=C(CCCCCNC(=O)c1ccc(NC(=O)N[C@H](C(=O)Nc2ccc(F)cc2)c2ccccc2)cc1)NO` [(S)-4-(3-(2-((4-fluorophenyl)amino)-2-oxo-1-phenylethyl)ureido)-N-(6-(hydroxyamino)-6-oxohexyl)benzamide (L3)] in this work.
An IC50 of 1870 nM was found for `Cc1ccc(NC(=O)[C@@H](NC(=O)Nc2ccc(C(=O)NCCCCCC(=O)NO)cc2)c2ccccc2)cc1` [(S)-N-(6-(hydroxyamino)-6-oxohexyl)-4-(3-(2-oxo-1-phenyl-2-(p-tolylamino)ethyl)ureido)benzamide (L9)] in this work.
An IC50 of 1520 nM was found for `CC(C)(C)OC(=O)NC(C(=O)Nc1ccc(C(=O)NO)cc1)c1ccccc1` (configuration not stated) [phenylglycine containing lead compound (4h)] in this work.
An IC50 of 1320 nM was found for `O=C(CCCCCNC(=O)c1ccc(NC(=O)N[C@H](C(=O)Nc2ccccc2F)c2ccccc2)cc1)NO` [(S)-4-(3-(2-((2-fluorophenyl)amino)-2-oxo-1-phenylethyl)ureido)-N-(6-(hydroxyamino)-6-oxohexyl)benzamide (L2)] in this work.
An IC50 of 1510 nM was found for `O=C(CCCCCNC(=O)c1ccc(NC(=O)N[C@H](C(=O)NCc2ccccc2)c2ccccc2)cc1)NO` [(S)-4-(3-(2-(benzylamino)-2-oxo-1-phenylethyl)ureido)-N-(6-(hydroxyamino)-6-oxohexyl)benzamide (L1)] in this work.
An IC50 of 1570 nM was found for `O=C(CCCCCNC(=O)c1ccc(NC(=O)N[C@H](C(=O)Nc2ccc(Cl)cc2Cl)c2ccccc2)cc1)NO` [(S)-4-(3-(2-((2,4-dichlorophenyl)amino)-2-oxo-1-phenylethyl)ureido)-N-(6-(hydroxyamino)-6-oxohexyl)benzamide (L19)] in this work.
An IC50 of 1280 nM was found for `O=C(CCCCCNC(=O)c1ccc(NC(=O)N[C@H](C(=O)Nc2cccc(Cl)c2)c2ccccc2)cc1)NO` [(S)-4-(3-(2-((3-chlorophenyl)amino)-2-oxo-1-phenylethyl)ureido)-N-(6-(hydroxyamino)-6-oxohexyl)benzamide (L12)] in this work.

From BindingDB's records for doi:10.3109/14756366.2013.827678 (Qingdao University, 2014)
